From US11844801B2, “Oral compositions of MK2 pathway inhibitor for treatment of immune conditions” (priority 2020, dated 2023)
Where “and” joins values, the source holds several entries; their conditions need not be identical. Equal entries are not always repeated.

What was measured:
TNF-α [1] = assay: Differentiated U937 cell LPS stimulated cytokine assay (TNF-α); assay type: cell-based; settings: Homo sapiens, U-937, U937 cells, 100 ng/mL, 4 hr
Description: U937 Cell differentiation and LPS stimulated cytokine assay: The U937 human pre-monocytic cell line (ATCC, CRL-1593.2) was grown in complete media: RPMI 1640 (Gibco, A10491) with penicillin-streptomycin (10 U/mL)-glutamine (2 mM) (Gibco, 10378016) and 10% FBS(Gibco, 26140-079). Cells were differentiated to a monocyte/macrophage phenotype with the addition of PMA (Sigma-Aldrich, P1585) (20 ng/mL, 24 hours), washed with DPBS (Gibco, 14190-136) and incubated in complete media for 24 hours at 37° C., 5% CO2. Following recovery, the cells were scraped, counted, re-plated in complete media in accordance with the experimental design and incubated for an additional 24 hours at 37° C., 5% CO2 prior to stimulation with LPS (Sigma-Aldrich, L2630) as described below. Differentiated U937 cells were pretreated for one hour in the presence of serially diluted compound or vehicle then stimulated with LPS at a final concentration of 100 ng/mL for four hours. Culture media was then collected for determination of cytokine levels using Meso Scale Technology.

TNF-α, IL-6, and IL-8 = assay: Ex vivo IL-1β-induced TNF-α, IL-6 and IL-8 in blood of dosed healthy subjects; settings: human
Description: Methods: Safety, pharmacokinetics (PK) and pharmacodynamics (PD) were assessed in two cohorts of subjects in a randomized, observer-blind, placebo-controlled study in male and female healthy subjects aged 18-55 (n=77). The study consisted of twenty (20) subjects enrolled into 2 cohorts. […] The final dose was administered in the morning on Day 7. Blood samples were obtained Day 1—before dosing, Day 1—4 hours after dosing and Day 1—12 hours after dosing and Day 7—before dosing, Day 7—4 hours after dosing, day 7—12 hour after dosing and Day 7—24 hours after dosing for each subject.

IL-1β = assay: Ex vivo LPS-stimulated IL-1β in blood of dosed healthy subjects, PK/PD inhibitory Emax model; design: species or system human
Description: (§1) Blood samples of 10 mL were collected for PD analysis. For the SAD cohorts, blood was collected before dosing and 1, 12, and 24 hours after dosing. For the MAD cohorts, on day 1 blood was collected before the morning dose and 4 and 12 hours after the morning dose (prior to the evening dose); on day 7, blood was collected before the morning dose and 4 and 12 hours after the morning dose.
(§2) Additional details of the assays for analyzing p-HSP27 and cytokines are included in the Supplementary Information.
(§3) Pharmacodynamics. PD data analysis was conducted using Microsoft Excel 2010 (Microsoft, Redmond, WA), Meso Scale Discovery Workbench® analysis software (Rockville, MD), and Phoenix WinNonlin, version 8.2.
(§4) Sample Preparation for Cytokine Analysis. For each sample, 180 μL aliquots were transferred into 7 wells of a round bottom 96 well tissue culture polystyrene low evaporation plate. […] No outer wells on the plates were used and all wells surrounding the samples contained 200 μL of phosphate buffered saline.
(§5) DMSO was added to all wells in groups ‘A’ and ‘C’ to a final concentration of 0.1% ([…] of a 2% DMSO solution in DMEM containing 10% FBS and 1% penicillin/streptomycin/glutamine). […] Samples were mixed gently for 30 seconds on a plate shaker using pin tools, then placed in an incubator at 37° C./5% CO2 for 1 hour.
(§6) Samples in groups ‘A’ and ‘B’ were stimulated with lipopolysaccharide at a final concentration of 100 ng/mL. A stock solution of lipopolysaccharide at 1 mg/mL in DMEM containing 10% FBS and 1% penicillin/streptomycin was diluted to […] in DMEM containing 10% FBS and 1% penicillin/streptomycin, and […] of this working solution was added per well of blood for all samples in groups ‘A’ and ‘B’. […] of DMEM containing 10% FBS only was added per well of blood for all samples in group ‘C’ (unstimulated samples). Samples were mixed gently for 30 seconds on a plate shaker using pin tools, then placed in an incubator at 37° C./5% CO2 for 5 hours.
(§7) Following the incubation, the plates were removed from the incubator and sealed with adhesive clear plate seals. The plates were then centrifuged for 10 minutes at 1800×g at room temperature. […] of plasma was removed from each well and transferred to a 96-well polypropylene round bottom master plate, which was then sealed and frozen at −80° C. until all samples from the respective cohort were generated. Once all samples from a given cohort were generated, the samples were analyzed for cytokine (TNF-α, IL-1b, IL-6, and IL-8) production using Meso Scale Discovery Technology.
(§8) Analysis of Cytokine Levels Using Meso Scale Discovery Technology. All lipopolysaccharide plasma samples were analyzed for cytokine production with a V-Plex Human Proinflammatory Panel II (4-Plex) Kit from Meso Scale Discovery (Rockville, MD). The master plates containing the plasma samples were thawed on ice, and a daughter plate consisting of a 25-fold dilution of each plasma sample (3 μL of plasma plus 72 μL of Meso Scale Discovery Diluent 2) was generated for each master plate. The diluted plasma samples from the daughter plates were used in the cytokine analysis. The Meso Scale Discovery 4-plex plates were washed 3 times with 150 μL/well of wash buffer (1×KPL phosphate buffered saline with Tween 20 from SeraCare [Milford, MA]). Prepared calibrators and the samples from the daughter plates were added to the washed Meso Scale Discovery 4-plex plates at 50 μL/well. The 4-plex plates were sealed and shaken overnight at 4° C.
(§9) After the overnight incubation, the samples were removed by decanting. The 4-plex plates were then washed 3 times with 150 μL/well of wash buffer. […]

[2] = 13-week oral administration non-clinical safety study, rat; assay type: in vivo; settings: for Cmax / AUC(0-t): 30 mg/kg/day oral; for AUC(0-t): read-out: AUC0-24
Description: (§10) Study Design. […] Rats were administered 0 (vehicle), 3, 10 and 30 mg/kg/day, and Mini-pigs were administered 0 (vehicle) 10, 30 and 60 mg/kg/day

[3] = cited from earlier work
TNF-α [4] = assay: TLR2 ligand (Pam3) or LPS induced TNF-α in peripheral blood mononuclear cells; assay type: cell-based; settings: 10-10,000 nM
Description: LPS or Pam3 were then added to the designated wells for a final concentration of 100 ng/mL for both (or medium for unstimulated control). After 30 min MSU was added to the designated wells for final concentration of 100 μg/mL (or medium for no-MSU control). After a 6-hour incubation, plates were centrifuged at 500×g for 5 min, and medium was collected from each well for assay. Released TNF-α was measured using Meso Scale Discovery technology, an ELISA-like format with capture and detection antibodies, but with a final readout using electrochemiluminescence.

IL-8 = assay: Ex vivo LPS-stimulated IL-8 in blood of dosed healthy subjects, PK/PD inhibitory Emax model; design: species or system human
Description: as §1, §2, §3, §4, §5, §6, §7, §8, §9

[5] = 13-week oral administration non-clinical safety study, mini-pig; assay type: in vivo; settings: for Cmax / AUC(0-t): 60 mg/kg/day oral; for AUC(0-t): read-out: AUC0-24
Description: as §10

[6] = Homo sapiens, calculated from IC50, combined SAD and MAD data, read-out: IC80, plasma concentration at 80% of maximal inhibition
[7] = Homo sapiens, inhibitory Emax model, combined SAD and MAD data, read-out: IC50, plasma concentration at half maximal inhibition
[8] = calculated from IC50, combined SAD and MAD data
[9] = female, rat, in vivo, study day 88, females
[10] = male, rat, in vivo, study day 88, males
[11] = female, minipig, in vivo, study day 90, females
[12] = male, minipig, in vivo, study day 90, males

Structure (SMILES): Cc1cnc(-c2ccnc(C(C)(C)O)n2)cc1-n1c(C)cc(OCc2ncc(F)cc2F)c(Cl)c1=O (single isomer, unassigned) [ATI-450, 3-chloro-4-((3,5-difluoropyridin-2-yl)methoxy)-2′-(2-(2-hydroxypropan-2-yl)pyrimidin-4-yl)-5′,6-dimethyl-2H-[1,4′-bipyridin]-2-one]
- IC50 (TNF-α [1]): 1.55 ± 0.35 nM
- ex vivo IL-1β-induced TNF-α, IL-6, and IL-8 (TNF-α, IL-6, and IL-8): potently inhibits
- IL-1β inhibition versus baseline (IL-1β; 50 mg BID MAD cohort): ≤ 83.0%
- Cmax (Multiple of IC80) (IL-1β; 50 mg BID, day 7): 5.4x
- Ctrough (Multiple of IC80) (IL-1β; 50 mg BID, day 7): 2.2x
- IC80 (IL-1β; [6]): 0.0408 µg/mL
- IC50 (IL-1β; [7]): 0.0102 µg/mL
- IC80, plasma concentration at 80% of maximal inhibition (IL-1β; [8]): 0.0408 µg/mL
- Imax, maximum percent inhibition (IL-1β; inhibitory Emax model): 74% and 74.3%
- non adverse finding, myocytes ([2]; 13-week oral): Minimal to moderate degeneration of myocytes at all doses, including control animals
- mortality ([2]; 13-week oral, up to 30 mg/kg/day): No study drug-related mortality was observed
- recovery of rat non adverse findings ([2]; after 13-week dosing): complete recovery following 28-day non-dosing period
- Cmax [2, 9]: 5440 ng/mL
- AUC(0-t) [2, 9]: 43500 ng·h/mL
- Cmax [2, 10]: 3260 ng/mL
- AUC(0-t) [2, 10]: 36400 ng·h/mL
- NOAEL at 13 weeks ([2]; rat, in vivo, 13-week oral, read-out: no-observed adverse effect level (NOAEL)): 30 mg/kg/day
- non adverse finding, nasal area ([2]; several animals at mid and high dose): minimal ulceration/mixed cell inflammation
- bone marrow IL-1β in murine NOMID model ([3]; relative to placebo): reduction in bone marrow levels of IL-1β
- effect on disease in murine NOMID model ([3]; transgenic animal model): dramatic attenuation of disease
- TLR2 ligand induced TNF-α production (TNF-α [4]): dose dependently inhibits
- Cmax (Multiple of IC80) (IL-8; 50 mg BID, day 7): 5.6x
- Ctrough (Multiple of IC80) (IL-8; 50 mg BID, day 7): 2.3x
- IC80 (IL-8; [6]): 0.0388 µg/mL
- IC50 (IL-8; [7]): 0.0097 µg/mL
- IC80, plasma concentration at 80% of maximal inhibition (IL-8; [8]): 0.0388 µg/mL
- Imax, maximum percent inhibition (IL-8; inhibitory Emax model): 57% and 57.1%
- mortality ([5]; 13-week oral, up to 60 mg/kg/day): No study drug-related mortality was observed
- Cmax [5, 11]: 2360 ng/mL
- AUC(0-t) [5, 11]: 22600 ng·h/mL
- Cmax [5, 12]: 1670 ng/mL
- AUC(0-t) [5, 12]: 14400 ng·h/mL
- non-adverse findings, haematology ([5]; males at ≥10 mg/kg/day and females at 60 mg/kg/day): Slightly increased neutrophil, lymphocyte and platelet counts
- NOAEL at 13 weeks ([5]; minipig, in vivo, 13-week oral, read-out: no-observed adverse effect level (NOAEL)): 60 mg/kg/day
